Results from article PMC10439952, “JT002, a small molecule inhibitor of the NLRP3 inflammasome for the treatment of autoinflammatory disorders” (Scientific Reports, 2023).

Key:
[1] = target: NLRP3 inflammasome (Mus musculus, UniProt Q8R4B8); test: Inhibition of IL-1β production in LPS + ATP stimulated mouse whole blood; format: cell-based
Protocol: Inflammasome activation and whole blood assays were essentially carried out as described earlier. Details can be found in the supplementary information section accompanying this publication. A protocol for blood draws from healthy volunteers and use of the blood in preclinical assays was approved by Western Institutional Review Board, Inc (Puyallup, WA, USA). Informed consent was obtained from each donor prior to the first blood draw.
Cell viability was determined by addition of an equal volume of CellTiter-Glo® 2.0 reagent (Promega) to the remaining cells/supernatant in each well. Intracellular Caspase-1 activity was measured using the Caspase-Glo® assay (Promega) according to the manufacturer’s instructions. The biochemical capsase-1 assay was conducted at Reaction Biology Corporation (Malvern, USA). Human IL-1β, IL-1α, and TNFα and mouse IL-1β were measured in cell culture supernatants using homogeneous time resolved fluorescence assay kits (HTRF, Cisbio, Codolet, France). Human IL-18 was measured in cell culture supernatants using an ELISA kit (R&D Systems, Minneapolis, MN, USA). Plasma IL-1β concentrations were determined by Quantikine® ELISA (R&D Systems, Minneapolis, MN). […]
flagellin, prepared in Opt iMEM and combined with Lipofectamine 2000. […]

[2] = system: ozone exposed C57BL6/J mice; test: Murine model of ozone induced neutrophilic airway inflammation; format: in vivo, mouse
Protocol: Four groups of 4 or 5 female C57BL6/J mice (The Jackson Laboratory, Bar Harbor, ME) at 8–12 weeks of age were housed under pathogen-free conditions and maintained on an ovalbumin-free diet. Mice were dosed orally with JT002 at 2.5 or 25 mg/kg once daily for 4 days. On the last day, 1-h post-dosing of test compound, mice were exposed to O3 at 1.0 ppm for 3 h in stainless steel wire cages set inside 240-L laminar flow inhalation chambers. O3 was generated by directing compressed medical-grade oxygen through an electrical discharge O3 generator (Sander Ozonizer, Model 25, Erwin Sander Elektroapparatebau GmbH, Uetze-Eltze, Germany) located upstream of the exposure chamber. Exposure to HEPA-filtered air was done in a separate chamber with age- and treatment-matched control animals.
Determination of airway hyperresponsiveness (AHR) AHR was assessed on Day 30 (iTreg model) or 3 h after the O3 exposure (ozone model) as a change in airway resistance (cm H2O/mL/s) after challenge with aerosolized methacholine with using a whole body plethysmograph-based system (National Jewish Medical and Research Center, Denver, CO). Methacholine aerosol was administered by nebulization in increasing concentrations (12.5–100 mg/mL) and RL was continuously computed by fitting flow, volume, and pressure to an equation of motion (Labview, National Instruments, Dallas, TX). Bronchoalveolar Lavage Immediately after assessment of AHR, lungs were lavaged via the tracheal tube with 1 mL of Hanks’ balanced salt solution (Gibco, Grand Island, NY). Total cell numbers were counted. Differential cell counts for neutrophils and macrophages were performed in a blinded fashion by counting at least 200 cells on cytocentrifuged preparations (Model Cytospin 3, Shandon Ltd, Runcorn, UK) stained with Leukostat (Fisher Diagnostics, Fair Lawn, NJ). Cell-free BAL fluid was stored at − 80 °C until measurements of cytokine levels by ELISA (eBioscience, San Diego, CA) were performed. Blood Collection Immediately following AHR measurement, mice were euthanized by exsanguination and blood collected for serum. Samples were stored at − 80 °C for subsequent measurement of immunoglobulin levels by ELISA. Lung Histology After BAL collection, lungs were inflated through the trachea with 1 mL of 10% formalin, removed and fixed in 10% formalin by immersion. Blocks of the lung tissue were cut around the main bronchus and embedded in paraffin blocks. Tissue sections (5 μm) were affixed to glass slides, and the slides were deparaffinized and stained with H&E for qualitative analysis of inflammatory cell influx and epithelial desquamation.

[3] = system: autocatalytic cleavage of pro-caspase-1 (p45) into the p10 subunit; test: Western blot for caspase-1 p10 in LPS + nigericin stimulated mouse BMDM lysates and supernatants; format: cell-based; conditions: LPS + nigericin treated mBMDMs, compound 10 µM
Protocol: BMDMs were activated with LPS and nigericin as described above and were lysed in situ with 50 μL of 4× NuPAGE LDS sample buffer (Fisher Scientific, Hampton, NH) + 5% β-mercaptoethanol and prepared for polyacrylamide gel electrophoresis. Samples were run on NuPAGE Bis–Tris gels (Fisher Scientific, Hampton, NH) and transferred to polyvinylidene difluoride (PVDF) membranes (Fisher Scientific, Hampton, NH) using the iBlot® 2 Dry Blotting System (Fisher Scientific, Hampton, NH). Washed PVDF membranes were blocked and then probed with the following primary antibodies: procaspase-1 + p10 + p12 [EPR16883] (Abcam, Cambridge, MA), β-actin (AC-74, Sigma-Aldrich, St. Louis, MO) and NLRP3 [Cryo-2] (AdipoGen Life Sciences, San Diego, CA). Bound primary antibodies were detected using HRP-labeled secondary antibodies and membranes were imaged with an Azure c300 imager (Azure Biosystems, Dublin, CA). Bands were quantitated using ImageJ software.

[4] = 2.5 mg/kg orally once daily for 4 days
[5] = 25 mg/kg orally once daily for 4 days

Chain of NLRP3 inflammasome (Q8R4B8 whole entry): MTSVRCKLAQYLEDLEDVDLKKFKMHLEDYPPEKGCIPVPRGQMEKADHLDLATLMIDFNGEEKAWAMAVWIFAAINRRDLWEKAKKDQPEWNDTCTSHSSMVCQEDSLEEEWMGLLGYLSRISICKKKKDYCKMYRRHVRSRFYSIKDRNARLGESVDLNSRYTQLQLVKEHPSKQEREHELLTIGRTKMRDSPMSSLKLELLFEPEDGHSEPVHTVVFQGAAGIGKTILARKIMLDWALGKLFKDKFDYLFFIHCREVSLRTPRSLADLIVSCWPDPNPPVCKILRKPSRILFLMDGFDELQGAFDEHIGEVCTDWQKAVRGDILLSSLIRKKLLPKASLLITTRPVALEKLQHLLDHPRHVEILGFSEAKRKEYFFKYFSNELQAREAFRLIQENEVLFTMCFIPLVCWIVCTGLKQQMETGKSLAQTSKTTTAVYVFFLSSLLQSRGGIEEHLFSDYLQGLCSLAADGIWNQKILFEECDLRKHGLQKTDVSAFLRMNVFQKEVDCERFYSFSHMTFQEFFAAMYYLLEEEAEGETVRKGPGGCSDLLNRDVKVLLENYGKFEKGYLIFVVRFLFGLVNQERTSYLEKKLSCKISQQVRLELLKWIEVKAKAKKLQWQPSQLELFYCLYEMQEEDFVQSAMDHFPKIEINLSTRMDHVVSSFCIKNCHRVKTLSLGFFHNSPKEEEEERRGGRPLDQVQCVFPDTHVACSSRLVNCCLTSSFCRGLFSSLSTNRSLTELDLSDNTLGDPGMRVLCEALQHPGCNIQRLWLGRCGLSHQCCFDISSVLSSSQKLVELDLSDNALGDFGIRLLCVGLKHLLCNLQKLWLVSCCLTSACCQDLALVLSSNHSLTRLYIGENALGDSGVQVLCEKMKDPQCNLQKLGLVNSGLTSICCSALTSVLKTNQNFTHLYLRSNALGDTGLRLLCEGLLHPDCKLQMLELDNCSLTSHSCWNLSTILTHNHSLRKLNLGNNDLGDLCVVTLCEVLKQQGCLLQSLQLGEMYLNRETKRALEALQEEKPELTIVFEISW

IC90 ([1]; IL-1β, read-out: in vitro mouse whole blood IC90): 0.716 µM
IC50 ([1]; read-out: Geo Av IC50, IL-1β): 0.094 µM
Structure (SMILES): CO[C@@H]1COc2c(S(=O)(=O)NC(=O)Nc3c4c(cc5c3CCC5)CCC4)cnn2C1 [JT002]
AHR [2, 4]: strong trend for reduction
BAL neutrophilia [2, 4]: no effect
prevention of airway epithelial desquamation [2, 4]: strong trend
BAL fluid neutrophil numbers [2, 5]: significantly reduced
appearance of epithelial cells in the airway lumen [2, 5]: visibly reduced
number of epithelial cells in the BAL fluid [2, 5]: no effect
ozone-induced AHR [2, 5]: prevented ozone-induced AHR
formation of the caspase-1 p10 subunit (autocatalytic cleavage of pro-caspase-1) [3]: blocked formation of the p10 subunit and its release from the cell
